These results are taken from ChEMBL document CHEMBL1131361, “Structure-activity relationships in 2-aminodiphenylsulfides against trypanothione reductase from Trypanosoma cruzi” (Bioorg Med Chem Lett, 1998).

A value given as a limit tells only on which side of the number the result lay.

System in the first series: not listed separately
The experiment in a line: (§1) Michaelis constant was determined.
The term Km denotes the concentration of substrate that gives half-maximal velocity. With `CC1=CC(=O)c2ccccc2C1=O` [MENADIONE], the Michaelis-Menten constant (Km) came to 882 µM.

System in the next series: not listed separately
The series is described as §1. The class given is ADME.
For `CN1CCN(CCC(=O)Nc2cc(Br)ccc2Sc2cccc(NC(=O)CCCCCC(=O)OCC3=C(Br)C(=O)c4ccccc4C3=O)c2)CC1`, the Km was found to be 160 µM.

System in a further series: not listed separately
The experiment in a line: Catalytic rate constant was determined. It counts as ADME.
Turning to `CN1CCN(CCC(=O)Nc2cc(Br)ccc2Sc2cccc(NC(=O)CCCCCC(=O)OCC3=C(Br)C(=O)c4ccccc4C3=O)c2)CC1`, the “k cat/Km” value stood at 8400 M⁻¹ s⁻¹.

On to `CC1=CC(=O)c2ccccc2C1=O` [MENADIONE], for which the “k cat/Km” value amounted to 50000 M⁻¹ s⁻¹.

A further series deals with Trypanothione reductase (Trypanosoma cruzi, UniProt P28593). Kind of series: Inhibition of trypanothione reductase from Trypanosoma cruzi, in the presence 57 uM of trypanothione T(SH)2.
Sequence of Trypanothione reductase (P28593 whole entry): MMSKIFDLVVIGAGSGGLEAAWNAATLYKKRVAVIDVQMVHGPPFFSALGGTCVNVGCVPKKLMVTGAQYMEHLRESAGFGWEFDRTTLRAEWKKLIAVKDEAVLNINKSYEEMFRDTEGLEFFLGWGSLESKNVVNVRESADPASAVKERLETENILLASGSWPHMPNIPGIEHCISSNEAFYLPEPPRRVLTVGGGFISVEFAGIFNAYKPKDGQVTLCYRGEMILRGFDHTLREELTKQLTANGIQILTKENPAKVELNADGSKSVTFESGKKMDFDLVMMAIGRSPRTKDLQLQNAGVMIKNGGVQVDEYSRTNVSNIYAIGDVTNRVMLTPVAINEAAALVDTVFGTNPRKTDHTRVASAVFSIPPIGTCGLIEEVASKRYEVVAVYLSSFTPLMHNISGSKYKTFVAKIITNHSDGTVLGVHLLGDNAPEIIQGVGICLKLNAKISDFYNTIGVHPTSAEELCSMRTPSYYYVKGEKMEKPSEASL
For orientation: IC50 means the concentration at which inhibition is half-maximal. Low values mean inhibition by little substance, high ones a need for much substance. Regarding `CN1CCN(CCC(=O)Nc2cc(Br)ccc2Sc2cccc(NC(=O)CCCC(=O)NCCc3ccccc3)c2)CC1`, inhibition was half-maximal at 20 µM (IC50).

Consider `CN1CCN(CCC(=O)Nc2cc(Br)ccc2Sc2cccc(NC(=O)CCCCCC(=O)Nc3cccc(Sc4ccccc4[N+](=O)[O-])c3)c2)CC1`, for which the IC50 was greater than 60 µM.

Consider `CN1CCN(CCC(=O)Nc2cc(Br)ccc2Sc2cccc(NC(=O)CCCC(=O)NCc3ccccn3)c2)CC1`, for which the IC50 was greater than 60 µM.

As for `CN1CCN(CCC(=O)Nc2cc(Br)ccc2Sc2cccc(NC(=O)CCCC(=O)NCc3ccccc3)c2)CC1`, the half-maximal inhibitory concentration (IC50) was 35 µM.

Take `CN1CCN(CCC(=O)Nc2ccccc2Sc2cccc(NC(=O)CCCCCC(=O)Nc3cccc(Sc4ccccc4N)c3)c2)CC1`: the IC50 stood at 1.8 µM.

In the case of `CCCCCCCNC(=O)CCCC(=O)Nc1cccc(Sc2ccc(Br)cc2NC(=O)CCN2CCN(C)CC2)c1`, the IC50 stood at 23 µM.

`CN(C)Cc1ccc(Nc2ccc(NC(=O)CCCCCC(=O)Nc3cccc(Sc4ccc(Br)cc4NC(=O)CCN4CCN(C)CC4)c3)c3c2C(=O)c2ccccc2C3=O)cc1` had an IC50 of 3.3 µM.

In turn, `CN1CCN(CCC(=O)Nc2cc(Br)ccc2Sc2cccc(NC(=O)CCCCCC(=O)Nc3cccc(Sc4ccccc4N)c3)c2)CC1` came in with a half-maximal inhibitory concentration (IC50) of 16 µM.

On to `CCN(CC)C(=O)CCCC(=O)Nc1cccc(Sc2ccc(Br)cc2NC(=O)CCN2CCN(C)CC2)c1`, for which the half-maximal inhibitory concentration (IC50) is greater than 60 µM.

`CN1CCN(CCC(=O)Nc2cc(Br)ccc2Sc2cccc(NC(=O)CCCCCC(=O)Nc3ccccc3)c2)CC1`: the IC50 is 14 µM.

`CN1CCN(CCC(=O)Nc2cc(Br)ccc2Sc2cccc(NC(=O)CCCC(=O)NCc3ccc4ccccc4c3)c2)CC1` showed a half-maximal inhibitory concentration (IC50) of 25 µM.

Consider `CN1CCN(CCC(=O)Nc2cc(Br)ccc2Sc2cccc(NC(=O)CCCCCC(=O)OCC3=C(Br)C(=O)c4ccccc4C3=O)c2)CC1`, for which the 50% inhibitory concentration (IC50) is 41 µM.

The molecule `CN1CCN(CCC(=O)Nc2cc(Br)ccc2Sc2cccc(NC(=O)CCCC(=O)Nc3cccc(Sc4ccc(Br)cc4NC(=O)CCN4CCN(C)CC4)c3)c2)CC1` had an IC50 of 0.55 µM.

Turning to `CN1CCN(CCC(=O)Nc2cc(Br)ccc2Sc2cccc(NC(=O)CCCC(=O)NCC3CCCCC3)c2)CC1`, half-maximal inhibition (IC50) was put at 47 µM.

`CN1CCN(CCC(=O)Nc2cc(Br)ccc2Sc2cccc(NC(=O)CCCCCC(=O)Nc3ccc(N)c4c3C(=O)c3ccccc3C4=O)c2)CC1`: the half-maximal inhibitory concentration (IC50) was greater than 60 µM.

The molecule `CN1CCN(CCC(=O)Nc2cc(Br)ccc2Sc2cccc(NC(=O)CCCC(=O)NCC34C[C@H]5C[C@@H](C3)C[C@@H](C4)C5)c2)CC1` came in with a half-inhibitory concentration (IC50) greater than 60 µM.

As for `CN1CCN(CCC(=O)Nc2cc(Br)ccc2Sc2cccc(NC(=O)CCCC(=O)NCc3ccc4c(c3)OCO4)c2)CC1`, the IC50 worked out at 33 µM.

`CN1CCN(CCC(=O)Nc2cc(Br)ccc2Sc2cccc(NC(=O)CCCC(=O)NCC3CCCO3)c2)CC1` (centres undefined) registered an IC50 greater than 60 µM.

In the case of `CCCCCCCCCCCCCCCCNC(=O)CCCC(=O)Nc1cccc(Sc2ccc(Br)cc2NC(=O)CCN2CCN(C)CC2)c1`, the concentration for half-maximal inhibition (IC50) was greater than 60 µM.

The molecule `CN1CCN(CCC(=O)Nc2cc(Br)ccc2Sc2cccc(NC(=O)CCCC(=O)NC(c3ccccc3)c3ccccc3)c2)CC1` gave an IC50 of 28 µM.
